# Tests used:
# Type in all cases: cell-based, Human
# caspase 1 = test: Caspase 1 activity in ΔK280 tauRD-DsRed cells; conditions: 10 μM, ∆K280 tauRD-DsRed cells
# Protocol: Aβ-GFP or ∆K280 tauRD-DsRed SH-SY5Y cells were seeded into 6-well plates (5 × 10^5/well) and treated with retinoic acid, coumarin-chalcone derivatives, and doxycycline as previously described. On day 8, cells were collected and lysates were prepared with six freeze/thaw cycles. The supernatant was collected by centrifugation, followed by measurement of the caspase 1 activity in 50 μg aliquots of cell extract using the ICE fluorometric assay kit (BioVision, Milpitas, CA, USA). Following incubation of the mixture at 37°C for 2 h, fluorescence was measured with excitation/emission wavelengths at 400/505 nm (FLx800 fluorescence microplate reader). In addition, the collected cells were lysed by sonication. Acetylcholinesterase (AChE) activity in the supernatant was determined in 10 μg aliquots of cell extracts using the AChE activity assay kit (Sigma-Aldrich) according to the manufacture's protocol. Finally, the absorbance at 412 nm was measured using a Multiskan GO spectrophotometer (Thermo Fisher Scientific).
# [1] = tested on: ∆K280 tauRD-DsRed SH-SY5Y cells; test: ROS assay (DCFH-DA) in ΔK280 tauRD-DsRed cells; conditions: 10 μM
# Protocol: (§1) On day 1, Aβ-GFP or ∆K280 tauRD-DsRed SH-SY5Y cells were seeded into 96-well plates (2.5 × 10^4/well) and treated with retinoic acid (10 μM; Sigma-Aldrich) to prompt neuronal differentiation. […] On day 8, cells were stained with Hoechst 33342 (0.1 μg/ml; Sigma-Aldrich) for 30 min, and cell images were automatically captured at excitation/emission wavelengths of 482/[…] (GFP fluorescence) or 543/593 nm (DsRed fluorescence) using a high content analysis (HCA) system (Micro Confocal High-Content Imaging System). Image Acquisition and Analysis Software (MetaXpress) (Molecular Devices, Sunnyvale, CA, USA) was used to analyse the images. CellROX Orange (5 μM; Molecular Probes, Eugene, OR, USA) (for Aβ-GFP cells) or dichloro-dihydro-fluorescein diacetate (DCFH-DA, 10 μM; Invitrogen) (for ∆K280 tauRD-DsRed cells) was added to the cells and incubated at 37°C for 30 min. The HCA system was used to measure intracellular ROS at 531/593 nm (CellROX Orange fluorescence) or 482/536 nm (DCFH-DA fluorescence) of excitation/emission wavelengths.
# Aβ-GFP SH-SY5Y cells [2] = test: ROS assay (CellROX Orange) in Aβ-GFP cells; conditions: tested 1.2–5 μM
# Protocol: as §1
# Aβ-GFP SH-SY5Y cells [3] = test: High content analysis of Aβ-GFP fluorescence
# Protocol: Human neuroblastoma SH-SY5Y-derived Aβ-GFP [23] and ∆K280 tauRD-DsRed cells were kept in DMEM/nutrient mixture F12 (DMEM/F12) containing 10% FBS, 5 μg/ml blasticidin, and 100 μg/ml hygromycin (InvivoGen, San Diego, CA, USA). Doxycycline (Sigma-Aldrich) was applied to induce the expression of Aβ-GFP (5 μg/ml doxycycline) or ∆K280 tauRD-DsRed (2 μg/ml doxycycline).
# On day 1, Aβ-GFP or ∆K280 tauRD-DsRed SH-SY5Y cells were seeded into 96-well plates (2.5 × 10^4/well) and treated with retinoic acid (10 μM; Sigma-Aldrich) to prompt neuronal differentiation. […] Image Acquisition and Analysis Software (MetaXpress) (Molecular Devices, Sunnyvale, CA, USA) was used to analyse the images. CellROX Orange (5 μM; Molecular Probes, Eugene, OR, USA) (for Aβ-GFP cells) or dichloro-dihydro-fluorescein diacetate (DCFH-DA, 10 μM; Invitrogen) (for ∆K280 tauRD-DsRed cells) was added to the cells and incubated at 37°C for 30 min.
smiles,measurement,setting,value
"CN(C)c1ccc(/C=C/C(=O)c2c(O)c3ccccc3oc2=O)cc1 [LM-021, (E)-3-(3-(4-(dimethylamino)phenyl)acryloyl)-4-hydroxy-2H-chromen-2-one]",Caspase 1 activity,caspase 1,lowered caspase 1 activity
same,ROS level elevated by ∆K280 tauRD overexpression,[1],effectively reduced
same,Concentration effectively decreasing ROS levels caused by Aβ overexpression,Aβ-GFP SH-SY5Y cells [2],1.2 to 5 µM
same,Toxicity in SH-SY5Y cells,Aβ-GFP SH-SY5Y cells [3]; Aβ-GFP and ΔK280 tauRD-DsRed SH-SY5Y cells (Figures 3 and 4),low toxicity
same,EC50,"Aβ-GFP SH-SY5Y cells [3]; Homo sapiens, Aβ-GFP SH-SY5Y cells, tested 1.2–5 μM, read-out: EC50 in Aβ aggregation inhibition (GFP fluorescence)",5.1 µM
same,Concentration significantly augmenting green fluorescence intensity (Aβ-GFP),"Aβ-GFP SH-SY5Y cells [3]; tested 1.2–5 μM, day 8",1.2 to 5 µM
